How the values were obtained:
Test in all cases: relative viability (nuclei count vs DMSO), 5 days (fraction); higher = more cells survive
COR-L 105 = tested on: COR-L 105
How it was run: (§1)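 Lung cancer cell lines were seeded in 1536-well plates and dosed by pin tool the next day, with either a single drug or a fixed anchor-drug dose combined with five library-drug doses (not always all listed) spaced in √10 steps. Five days later, one step fixed the cells and stained their nuclei (final 0.05% Triton X-100, 1% formaldehyde, 1 ug/ml Hoechst), and nuclei were counted on 4× images. Relative viability is the nuclei count in treated wells divided by the count in vehicle wells, and each value is the median of duplicate plates.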

SK-LU-1 = tested on: SK-LU-1
How it was run: as §1

HCC-366 = tested on: HCC-366
How it was run: as §1

NCI-H1944 = tested on: NCI-H1944
How it was run: as §1

NCI-H1975 = tested on: NCI-H1975
How it was run: as §1

HCC-78 = tested on: HCC-78
How it was run: as §1

HCC-15 = tested on: HCC-15
How it was run: as §1

HARA = tested on: HARA
How it was run: as §1

HCC-44 = tested on: HCC-44
How it was run: as §1

COR-L23 = tested on: COR-L23
How it was run: as §1

NCI-H2405 = tested on: NCI-H2405
How it was run: as §1

NCI-H2085 = tested on: NCI-H2085
How it was run: as §1

UMC-11 = tested on: UMC-11
How it was run: as §1

HCC-827 = tested on: HCC-827
How it was run: as §1

NCI-H727 = tested on: NCI-H727
How it was run: as §1

NCI-H1437 = tested on: NCI-H1437
How it was run: as §1

NCI-H1395 = tested on: NCI-H1395
How it was run: as §1

NCI-H2023 = tested on: NCI-H2023
How it was run: as §1

EPLC-272H = tested on: EPLC-272H
How it was run: as §1

NCI-H1792 = tested on: NCI-H1792
How it was run: as §1

SMILES: O=C(O)CCCCC(CCSCc1ccccc1)SCc1ccccc1 (centres undefined) [CPI-613] + CC1(C)CCC(c2ccc(Cl)cc2)=C(CN2CCN(c3ccc(C(=O)NS(=O)(=O)c4ccc(N[C@H](CCN5CCOCC5)CSc5ccccc5)c(S(=O)(=O)C(F)(F)F)c4)cc3)CC2)C1 [Navitoclax] (partner 0.5 µM)
- relative viability (COR-L 105; first compound 5 µM): 0.847
- relative viability (COR-L 105; first compound 15.81 µM): 0.776
- relative viability (COR-L 105; first compound 50 µM): 0.719
- relative viability (COR-L 105; first compound 158.11 µM): 0.297
- relative viability (COR-L 105; first compound 500 µM): 0.286
- relative viability (SK-LU-1; first compound 5 µM): 0.78
- relative viability (SK-LU-1; first compound 15.81 µM): 0.586
- relative viability (SK-LU-1; first compound 50 µM): 0.857
- relative viability (SK-LU-1; first compound 158.11 µM): 0.195
- relative viability (SK-LU-1; first compound 500 µM): 0.156
- relative viability (HCC-366; first compound 5 µM): 1.03
- relative viability (HCC-366; first compound 15.81 µM): 0.99
- relative viability (HCC-366; first compound 50 µM): 1.1
- relative viability (HCC-366; first compound 158.11 µM): 0.774
- relative viability (HCC-366; first compound 500 µM): 0.0086
- relative viability (NCI-H1944; first compound 5 µM): 0.998
- relative viability (NCI-H1944; first compound 15.81 µM): 1.01
- relative viability (NCI-H1944; first compound 50 µM): 1.02
- relative viability (NCI-H1944; first compound 158.11 µM): 0.769
- relative viability (NCI-H1944; first compound 500 µM): 0.627
- relative viability (NCI-H1975; first compound 5 µM): 0.988
- relative viability (NCI-H1975; first compound 15.81 µM): 1.1
- relative viability (NCI-H1975; first compound 50 µM): 1.08
- relative viability (NCI-H1975; first compound 158.11 µM): 0.816
- relative viability (NCI-H1975; first compound 500 µM): 0.0403
- relative viability (HCC-78; first compound 5 µM): 0.731
- relative viability (HCC-78; first compound 15.81 µM): 0.749
- relative viability (HCC-78; first compound 158.11 µM): 0.783
- relative viability (HCC-78; first compound 500 µM): 0.876
- relative viability (HCC-15; first compound 5 µM): 0.625
- relative viability (HCC-15; first compound 15.81 µM): 0.68
- relative viability (HCC-15; first compound 50 µM): 0.612
- relative viability (HCC-15; first compound 158.11 µM): 0.309
- relative viability (HCC-15; first compound 500 µM): 0.278
- relative viability (HARA; first compound 5 µM): 1.14
- relative viability (HARA; first compound 15.81 µM): 1.13
- relative viability (HARA; first compound 50 µM): 1.16
- relative viability (HARA; first compound 158.11 µM): 0.504
- relative viability (HARA; first compound 500 µM): 0.0371
- relative viability (HCC-44; first compound 5 µM): 1.03
- relative viability (HCC-44; first compound 15.81 µM): 1.08
- relative viability (HCC-44; first compound 50 µM): 1.07
- relative viability (HCC-44; first compound 158.11 µM): 0.322
- relative viability (HCC-44; first compound 500 µM): 0.0385
- relative viability (COR-L23; first compound 5 µM): 1.07
- relative viability (COR-L23; first compound 15.81 µM): 0.913
- relative viability (COR-L23; first compound 50 µM): 0.987
- relative viability (COR-L23; first compound 158.11 µM): 0.327
- relative viability (COR-L23; first compound 500 µM): 0.0196
- relative viability (NCI-H2405; first compound 5 µM): 0.929
- relative viability (NCI-H2405; first compound 15.81 µM): 0.796
- relative viability (NCI-H2405; first compound 50 µM): 0.765
- relative viability (NCI-H2405; first compound 158.11 µM): 0.795
- relative viability (NCI-H2405; first compound 500 µM): 0.67
- relative viability (NCI-H2085; first compound 5 µM): 0.988
- relative viability (NCI-H2085; first compound 15.81 µM): 1.04
- relative viability (NCI-H2085; first compound 50 µM): 1.07
- relative viability (NCI-H2085; first compound 158.11 µM): 0.543
- relative viability (NCI-H2085; first compound 500 µM): 0.196
- relative viability (UMC-11; first compound 5 µM): 0.28
- relative viability (UMC-11; first compound 15.81 µM): 0.324
- relative viability (UMC-11; first compound 50 µM): 0.278
- relative viability (UMC-11; first compound 158.11 µM): 0.143
- relative viability (UMC-11; first compound 500 µM): 0.0935
- relative viability (HCC-827; first compound 5 µM): 0.983
- relative viability (HCC-827; first compound 15.81 µM): 0.96
- relative viability (HCC-827; first compound 50 µM): 0.877
- relative viability (HCC-827; first compound 158.11 µM): 0.414
- relative viability (HCC-827; first compound 500 µM): 0.065
- relative viability (NCI-H727; first compound 5 µM): 0.386
- relative viability (NCI-H727; first compound 15.81 µM): 0.337
- relative viability (NCI-H727; first compound 50 µM): 0.331
- relative viability (NCI-H727; first compound 158.11 µM): 0.0645
- relative viability (NCI-H727; first compound 500 µM): 0.046
- relative viability (NCI-H1437; first compound 5 µM): 1.03
- relative viability (NCI-H1437; first compound 15.81 µM): 0.957
- relative viability (NCI-H1437; first compound 50 µM): 1.03
- relative viability (NCI-H1437; first compound 158.11 µM): 0.199
- relative viability (NCI-H1437; first compound 500 µM): 0.0367
- relative viability (NCI-H1395; first compound 5 µM): 1.48
- relative viability (NCI-H1395; first compound 15.81 µM): 1.03
- relative viability (NCI-H1395; first compound 50 µM): 1.08
- relative viability (NCI-H1395; first compound 158.11 µM): 1.16
- relative viability (NCI-H1395; first compound 500 µM): 0.961
- relative viability (NCI-H2023; first compound 5 µM): 1.01
- relative viability (NCI-H2023; first compound 15.81 µM): 0.997
- relative viability (NCI-H2023; first compound 50 µM): 0.951
- relative viability (NCI-H2023; first compound 158.11 µM): 0.103
- relative viability (NCI-H2023; first compound 500 µM): 0.0259
- relative viability (EPLC-272H; first compound 5 µM): 1.24
- relative viability (EPLC-272H; first compound 15.81 µM): 0.897
- relative viability (EPLC-272H; first compound 50 µM): 1.11
- relative viability (EPLC-272H; first compound 158.11 µM): 0.86
- relative viability (EPLC-272H; first compound 500 µM): 0.765
- relative viability (NCI-H1792; first compound 5 µM): 0.518
- relative viability (NCI-H1792; first compound 15.81 µM): 0.595
- relative viability (NCI-H1792; first compound 50 µM): 0.603
- relative viability (NCI-H1792; first compound 158.11 µM): 0.411
- relative viability (NCI-H1792; first compound 500 µM): 0.601

— the supplement of paper PMC10307832
